Test results from patent publication US20080234131A1, “Herbicidal Mixtures of Cinmethylin” (priority 2005, published 2008).

System: LOLMG
Assay: Pre-emergence herbicidal trial, tank-mix incorporated into the soil, damage rated 0-100% against untreated control plots
Format: in vivo, lolium multiflorum
Method: The mixtures according to the invention are applied pre-emergence as tank-mix which is incorporated into the soil. The herbicidal compounds of component A) and B) are applied in the formulation in which they are present as commercially available product. […] For comparison the synergistic effect is estimated as follows: The value E at which only an additive effect of the individual active ingredients is to be expected is calculated by the method of S. R. […] This is done using the formula […] where • X=Percentage of the herbicidal action of component A) at an application rate of a; • Y=Percentage of the herbicidal action of component B) at an application rate of b; • E=expected herbicidal action of component A)+B) at rates of application a+b (in %). If the value observed exceeds the value E calculated in accordance with Colby's formula, then synergism is present.

SMILES: CCCN(CCC)c1c([N+](=O)[O-])cc(C(F)(F)F)cc1[N+](=O)[O-] [Trifluralin]
- % control of LOLMG (Trifluralin 500 g/ha solo): 59%

SMILES: CCC(CC)Nc1c([N+](=O)[O-])cc(C)c(C)c1[N+](=O)[O-] [Pendimethalin]
- % control of LOLMG (Pendimethalin 600 g/ha solo): 56%

SMILES: Cc1ccccc1CO[C@@H]1C[C@@]2(C(C)C)CC[C@]1(C)O2 [Cinmethylin, exo(+)-1-methyl-4-(1-methylethyl)-2-[(2-methylphenyl)methoxy]-7-oxabicyclo[2.2.1]heptane]
- % control of LOLMG (Cinmethylin 200 g/ha solo): 58%
- % control of LOLMG (Cinmethylin 400 g/ha solo): 67%
